Assay results taken from patent publication US12037322B2, “AHR agonists” (Eli Lilly and Company, priority 2021, dated 2024).

What follows are molecules tested against T1, hAHR (Homo sapiens, UniProt P35869) (assay: hAHR nuclear translocation assay). Details: Jump-In T-REx HEK293 cells expressing AhR-EGFP; 45 min incubation; ratio of EGFP intensity in nuclear over cytosol; 20-point curve.
T1 construct: expressed in transfected cells
T1 sequence (P35869 11-848): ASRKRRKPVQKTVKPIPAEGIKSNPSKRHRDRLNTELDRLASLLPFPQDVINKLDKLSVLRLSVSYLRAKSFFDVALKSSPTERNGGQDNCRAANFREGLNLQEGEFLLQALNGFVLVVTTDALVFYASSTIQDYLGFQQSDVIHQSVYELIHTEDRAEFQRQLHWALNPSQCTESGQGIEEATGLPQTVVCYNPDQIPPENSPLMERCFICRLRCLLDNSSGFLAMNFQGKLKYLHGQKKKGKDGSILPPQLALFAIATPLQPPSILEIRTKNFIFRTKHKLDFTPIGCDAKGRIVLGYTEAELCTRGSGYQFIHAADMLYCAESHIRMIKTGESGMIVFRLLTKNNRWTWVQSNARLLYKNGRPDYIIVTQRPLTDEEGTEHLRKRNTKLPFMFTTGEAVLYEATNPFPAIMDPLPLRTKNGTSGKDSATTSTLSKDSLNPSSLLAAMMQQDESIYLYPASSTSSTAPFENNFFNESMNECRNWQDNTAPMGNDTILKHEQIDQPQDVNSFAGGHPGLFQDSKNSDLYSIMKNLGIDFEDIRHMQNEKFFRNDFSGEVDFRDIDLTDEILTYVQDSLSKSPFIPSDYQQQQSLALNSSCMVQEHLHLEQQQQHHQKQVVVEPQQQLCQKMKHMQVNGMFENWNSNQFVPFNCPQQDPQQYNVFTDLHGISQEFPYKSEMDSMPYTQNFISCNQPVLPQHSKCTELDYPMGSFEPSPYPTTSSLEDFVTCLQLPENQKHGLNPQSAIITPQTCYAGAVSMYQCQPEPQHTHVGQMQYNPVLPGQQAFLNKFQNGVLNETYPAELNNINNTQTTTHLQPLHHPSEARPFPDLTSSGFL
Assay type: cell-based
Procedure: Stable cell lines were established using Jump-In™ T-REx™ HEK293 Retargeting Kit (Life Technologies). hAhR cDNA was cloned into the pJTI R4 CMV-TO EGFP vector. The EGFP was cloned to the C-terminal of AHR to form AhR-EGFP chimera. The pJTI R4 CMV-TO AhR-EGFP vector was transfected using FuGENE® HD into Jump-In™ T-REx™ HEK293 cells. Transfected cells were selected using 2.5 mg/ml G418 for 10 to 14 days, then expanded, harvested, and suspended in freeze media (FBS with 8% DMSO) at 2×10^7 cells/mL, and aliquots were stored in liquid nitrogen. One day before the assay date, cells were thawed and resuspended in DMEM with 5% FBS in the presence of 1 μg/mL Doxycycline and plated into ploy-L-Lysine coated […]-384 ULTRA Microplates (Perkin Elmer) at 12,000 to 15,000 cells per well and incubated at 37° C. and 5% CO2 overnight. On the assay date, compound was serially diluted (1:2) into 384-well nunc plates with DMSO using acoustic dispensing (ECHO). The dose response was a 20-point curve. Compound was resuspended in 40 μL of DMEM plus 0.1% BSA. The culture media was damped and 25 μL of DMEM plus 0.1% BSA was added, then 25 μL of compound in DMEM plus 0.1% BSA was added into cell plates. Cells were incubated with compounds at 37° C. and 5% CO2 for 45 min.
The final DMSO concentration was 0.2%. The media was damped after 45 minutes incubation. The cells were fixed with 40 μL of cold MeOH (−20° C.) for 20 min. The MeOH was damped and 50 μL of DPBS containing 1 μg/mL Hochst was added into the cell plates. The intensity of EGFP was quantitated by using OPERA PHENIX® or Operetta™ high content image system (Perkin Elmer) with 20× Water Objective and five field per well. The ratio of EGFP fluorescent intensity in nuclear over cytosol was analyzed using a 4-parameter nonlinear logistic equation to determine the potency of AhR agonists.

EC50	Structure (SMILES)
0.865 nM	CC(C)C1CCc2c1cc(C(=O)Nc1ncc(F)cn1)c(=O)n2C (single isomer, unassigned) [Example 112, N-(5-fluoropyrimidin-2-yl)-5-isopropyl-1-methyl-2-oxo-6,7-dihydro-5H-cyclopenta[b]pyridine-3-carboxamide]
16.9 nM	CC1CCc2c1cc(C(=O)Nc1ncccc1F)c(=O)n2C (stereo not shown) [Example 5, N-(3-Fluoro-2-pyridyl)-1,5-dimethyl-2-oxo-6,7-dihydro-5H-cyclopenta[b]pyridine-3-carboxamide]
19 nM	C[C@@H]1CCc2c1cc(C(=O)Nc1ncco1)c(=O)n2C [Example 74, (5R)-1,5-Dimethyl-N-oxazol-2-yl-2-oxo-6,7-dihydro-5H-cyclopenta[b]pyridine-3-carboxamide]
2.23 nM	CC1CCc2c1c(O)c(C(=O)Nc1ncccc1F)c(=O)n2C (stereo not shown) [Example 29, N-(3-Fluoro-2-pyridyl)-4-hydroxy-1,5-dimethyl-2-oxo-6,7-dihydro-5H-cyclopenta[b]pyridine-3-carboxamide]
0.342 nM	CC1CCc2c1c(O)c(C(=O)Nc1ncc(C(F)(F)F)cn1)c(=O)n2C (single isomer, unassigned) [Example 98, 4-Hydroxy-1,5-dimethyl-2-oxo-N-[5-(trifluoromethyl)pyrimidin-2-yl]-6,7-dihydro-5H-cyclopenta[b]pyridine-3-carboxamide]
1.84 nM	CC1CCc2c1cc(C(=O)Nc1nccs1)c(=O)n2C (single isomer, unassigned) [Example 62, 1,5-Dimethyl-2-oxo-N-thiazol-2-yl-6,7-dihydro-5H-cyclopenta[b]pyridine-3-carboxamide]
3.68 nM	CC1CCc2c1c(O)c(C(=O)Nc1ccc(C(F)(F)F)nc1)c(=O)n2C (stereo not shown) [Example 28, 4-Hydroxy-1,5-dimethyl-2-oxo-N-[6-(trifluoromethyl)-3-pyridyl]-6,7-dihydro-5H-cyclopenta[b]pyridine-3-carboxamide]
11.5 nM	C[C@@H]1CCc2c1cc(C(=O)Nc1ccccn1)c(=O)n2C [Example 23, (5R)-1,5-Dimethyl-2-oxo-N-(2-pyridyl)-6,7-dihydro-5H-cyclopenta[b]pyridine-3-carboxamide]
0.897 nM	CC1Cc2c(O)c(C(=O)Nc3ccccn3)c(=O)n(C)c2C1 (single isomer, unassigned) [Example 88, 4-Hydroxy-1,6-dimethyl-2-oxo-N-(2-pyridyl)-6,7-dihydro-5H-cyclopenta[b]pyridine-3-carboxamide]

Second part, the molecule before the results:

Structure (SMILES)	EC50
C[C@H]1CCc2c1cc(C(=O)Nc1ccccn1)c(=O)n2C [Example 22, (5S)-1,5-Dimethyl-2-oxo-N-(2-pyridyl)-6,7-dihydro-5H-cyclopenta[b]pyridine-3-carboxamide]	4.1 nM
Cn1c2c(cc(C(=O)Nc3ccc(F)cn3)c1=O)CC(C)(C)C2 [Example 48, N-(5-Fluoro-2-pyridyl)-1,6,6-trimethyl-2-oxo-5,7-dihydrocyclopenta[b]pyridine-3-carboxamide]	11.3 nM
Cn1c2c(cc(C(=O)Nc3ccccc3)c1=O)CC(C)(C)C2 [Example 47, 1,6,6-Trimethyl-2-oxo-N-phenyl-5,7-dihydrocyclopenta[b]pyridine-3-carboxamide]	0.803 nM
Cn1c2c(cc(C(=O)Nc3ccccc3)c1=O)CCCCC2 [Example 109, 1-Methyl-2-oxo-N-phenyl-6,7,8,9-tetrahydro-5H-cyclohepta[b]pyridine-3-carboxamide]	1.04 nM
Cn1c2c(cc(C(=O)Nc3ccccc3)c1=O)COC(C)(C)C2 [Example 51, 1,7,7-Trimethyl-2-oxo-N-phenyl-5,8-dihydropyrano[4,3-b]pyridine-3-carboxamide]	4.35 nM
C[C@@H]1CCc2c1cc(C(=O)Nc1ccns1)c(=O)n2C [Example 16, (5R)-N-Isothiazol-5-yl-1,5-dimethyl-2-oxo-6,7-dihydro-5H-cyclopenta[b]pyridine-3-carboxamide]	1.35 nM
Cn1c2c(c(O)c(C(=O)Nc3ccccc3)c1=O)CC(C)(C)CC2 [Example 110, 4-Hydroxy-1,6,6-trimethyl-2-oxo-N-phenyl-7,8-dihydro-5H-quinoline-3-carboxamide]	2.27 nM
